Measured values from patent US11795171B2, “Pyrrolotriazinones and imidazotriazinones as ubiquitin-specific protease 7 inhibitors” (Valo Health, Inc., priority 2014, dated 2023).

target: USP7 (Homo sapiens (Human), UniProt Q93009); assay: USP7 Assay B (Ubitquin-Rhodamine110 Assay); type: biochemical; conditions: Ub-Rh110 substrate 25 nM
Experimental: Stock compound solutions were stored at −20° C. as 10 mM in DMSO. […] Prestamped assay plates were allowed to come to room temperature on the day of the assay. For the screen, 100 nL of 2 mM was pre-dispensed for a final screening concentration of 10 μM (DMSO(fc)=0.5%). […] Unless otherwise indicated, all follow-up assays were run on triplecate plates. […] Pre-stamped with compounds were either not preincubated or preincubated with USP7 between 30 to 120 minutes prior to the addition of 10 μL of 2×Ub-Rh110 to compound plates. Plates were incubated stacked for either 23 or 45 minutes at room temperature before fluorescence was read on the Envision (Excitation at 485 nm and Emission at 535 nm; Perkin Elmer) or on the PheraSTAR (Excitation at 485 nm and Emission at 535 nm; BMG Labtech).
Data from USP7 Assays A and B were reported as percent inhibition (inh) compared with control wells based on the following equation: % inh=1−((FLU−AveLow)/(AveHigh−AveLow)) where FLU=measured Fluorescence (See Tables 2 and 3). AveLow=average Fluorescence of no enzyme control (n=16). AveHigh=average Fluorescence of DMSO control (n=16). IC50 values were determined by curve fitting of the standard 4 parameter logistic fitting algorithm included in the Activity Base software package: IDBS XE Designer Model205. Data is fitted using the Levenburg Marquardt algorithm.

Chain of USP7 (Q93009 208-1102): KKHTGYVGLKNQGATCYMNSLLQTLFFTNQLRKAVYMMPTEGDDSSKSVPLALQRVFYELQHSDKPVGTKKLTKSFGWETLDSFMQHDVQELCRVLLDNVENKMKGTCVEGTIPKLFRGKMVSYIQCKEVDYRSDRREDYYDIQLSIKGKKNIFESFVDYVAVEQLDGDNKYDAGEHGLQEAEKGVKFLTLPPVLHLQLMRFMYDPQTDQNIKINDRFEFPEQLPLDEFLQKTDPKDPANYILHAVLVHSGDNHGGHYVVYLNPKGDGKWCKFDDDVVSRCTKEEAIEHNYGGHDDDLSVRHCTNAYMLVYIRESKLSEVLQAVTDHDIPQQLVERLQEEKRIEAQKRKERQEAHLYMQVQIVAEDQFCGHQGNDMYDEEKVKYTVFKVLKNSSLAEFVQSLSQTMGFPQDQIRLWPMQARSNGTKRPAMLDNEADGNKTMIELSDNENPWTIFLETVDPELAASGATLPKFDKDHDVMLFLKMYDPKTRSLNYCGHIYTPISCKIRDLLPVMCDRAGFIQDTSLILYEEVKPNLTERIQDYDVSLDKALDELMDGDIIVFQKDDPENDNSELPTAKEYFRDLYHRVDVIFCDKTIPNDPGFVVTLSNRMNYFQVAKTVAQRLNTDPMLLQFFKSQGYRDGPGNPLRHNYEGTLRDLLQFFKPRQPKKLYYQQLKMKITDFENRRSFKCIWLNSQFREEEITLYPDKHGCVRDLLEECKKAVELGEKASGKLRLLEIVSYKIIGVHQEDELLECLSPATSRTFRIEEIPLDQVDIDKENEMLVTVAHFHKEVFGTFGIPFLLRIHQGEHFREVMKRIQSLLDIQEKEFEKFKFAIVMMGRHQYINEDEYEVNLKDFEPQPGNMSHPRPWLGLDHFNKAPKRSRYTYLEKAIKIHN

`O=C(COc1ccc(Cl)c(Cl)c1)Nc1cc2c(=O)n(CC3(O)CCN(C(=O)C4CC4)CC3)cnn2c1` [Compound I-105, N-(3-((1-(cyclopropanecarbonyl)-4-hydroxypiperidin-4-yl)methyl)-4-oxo-3,4-dihydropyrrolo[2,1-f][1,2,4]triazin-6-yl)-2-(3,4-dichlorophenoxy)acetamide] and `O=C(Cc1c(Cl)cccc1Cl)Nc1cc2c(=O)n(CC3(O)CCN(C(=O)C4CC4)CC3)cnn2c1` [Compound I-103, N-(3-((1-(cyclopropanecarbonyl)-4-hydroxypiperidin-4-yl)methyl)-4-oxo-3,4-dihydropyrrolo[2,1-f][1,2,4]triazin-6-yl)-2-(2,6-dichlorophenyl)acetamide] cannot be ordered by IC50: over 10 µM for the first, over 10 µM for the second.

Compared with `O=C(c1ccc(-c2ccc3ncnn3c2)cc1)N1CCC(O)(Cn2cnn3cccc3c2=O)CC1` [Compound I-48, 3-((1-(4-([1,2,4]triazolo[1,5-a]pyridin-6-yl)benzoyl)-4-hydroxypiperidin-4-yl)methyl)pyrrolo[2,1-f][1,2,4]triazin-4(3H)-one], `O=C(c1ccc(-c2ccc3ncccc3c2)cc1)N1CCC(O)(Cn2cnn3cccc3c2=O)CC1` [Compound I-43, 3-((4-hydroxy-1-(4-(quinolin-6-yl)benzoyl)piperidin-4-yl)methyl)pyrrolo[2,1-f][1,2,4]triazin-4(3H)-one] is lower in IC50: over 10 µM for the first, 1 to 10 µM for the second.

First: CC(C)(C)C(Cc1ccccc1)C(=O)N1CCC(O)(Cn2cnn3cccc3c2=O)CC1 (stereo not shown) [Compound I-53, 3-((1-(2-benzyl-3,3-dimethylbutanoyl)-4-hydroxypiperidin-4-yl)methyl)pyrrolo[2,1-f][1,2,4]triazin-4(3H)-one]
Second: N#CC(Cc1ccccc1)C(=O)N1CCC(O)(Cn2cnn3cccc3c2=O)CC1 (stereo not shown) [Compound I-54, 2-benzyl-3-(4-hydroxy-4-((4-oxopyrrolo[2,1-f][1,2,4]triazin-3(4H)-yl)methyl)piperidin-1-yl)-3-oxopropanenitrile]
The IC50 of the first is lower: 1 to 10 µM for the first, over 10 µM for the second.

First: O=C(c1ccc(-c2ccccc2)cc1Cl)N1CCC(O)(Cn2cnn3cccc3c2=O)CC1 [Compound I-50, 3-((1-(3-chloro-[1,1′-biphenyl]-4-carbonyl)-4-hydroxypiperidin-4-yl)methyl)pyrrolo[2,1-f][1,2,4]triazin-4(3H)-one]
Second: O=C(c1cccc(-c2cccc(F)c2)c1)N1CCC(O)(Cn2cnn3cccc3c2=O)CC1 [Compound I-30, 3-((1-(3′-fluoro-[1,1′-biphenyl]-3-carbonyl)-4-hydroxypiperidin-4-yl)methyl)pyrrolo[2,1-f][1,2,4]triazin-4(3H)-one]
The IC50 of the first is higher: over 10 µM for the first, 1 to 10 µM for the second.

`C[C@@H](NC(=O)Nc1cc2c(=O)n(CC3(O)CCN(C(=O)C4CC4)CC3)cnn2c1)c1ccccc1` [Compound I-95, (R)-1-(3-((1-(cyclopropanecarbonyl)-4-hydroxypiperidin-4-yl)methyl)-4-oxo-3,4-dihydropyrrolo[2,1-f][1,2,4]triazin-6-yl)-3-(1-phenylethyl)urea] and `O=C(Nc1cccc(Cl)c1)Nc1cc2c(=O)n(CC3(O)CCN(C(=O)C4CC4)CC3)cnn2c1` [Compound I-85, 1-(3-chlorophenyl)-3-(3-((1-(cyclopropanecarbonyl)-4-hydroxypiperidin-4-yl)methyl)-4-oxo-3,4-dihydropyrrolo[2,1-f][1,2,4]triazin-6-yl)urea] cannot be ordered by IC50: over 10 µM for the first, over 10 µM for the second.

First: O=C(c1ccc(-c2ccc(C(=O)N3CCC(O)(Cn4cnn5cccc5c4=O)CC3)c(Cl)c2)cc1)N1CCCCC1 [Compound I-79, 3-((1-(3-chloro-4′-(piperidine-1-carbonyl)-[1,1′-biphenyl]-4-carbonyl)-4-hydroxypiperidin-4-yl)methyl)pyrrolo[2,1-f][1,2,4]triazin-4(3H)-one]
Second: CC(C)c1ccc(-c2cccc(C(=O)N3CCC(O)(Cn4cnn5cccc5c4=O)CC3)c2)cc1 [Compound I-14, 3-((4-hydroxy-1-(4′-isopropyl-[1,1′-biphenyl]-3-carbonyl)piperidin-4-yl)methyl)pyrrolo[2,1-f][1,2,4]triazin-4(3H)-one]
The IC50 of the first is lower: 1 to 10 µM for the first, over 10 µM for the second. The first is the more potent here.

First: O=C(c1cnc(-c2ccccc2)o1)N1CCC(O)(Cn2cnn3cccc3c2=O)CC1 [Compound I-32, 3-((4-hydroxy-1-(2-phenyloxazole-5-carbonyl)piperidin-4-yl)methyl)pyrrolo[2,1-f][1,2,4]triazin-4(3H)-one]
Second: O=C(c1ccc(Sc2ccccc2)cc1)N1CCC(O)(Cn2cnn3cccc3c2=O)CC1 [Compound I-62, 3-((4-hydroxy-1-(4-(phenylthio)benzoyl)piperidin-4-yl)methyl)pyrrolo[2,1-f][1,2,4]triazin-4(3H)-one]
The IC50 of the first is higher: over 10 µM for the first, 1 to 10 µM for the second.

Compared with `O=C(c1ccccc1)c1ccc(C(=O)N2CCC(O)(Cn3cnn4cccc4c3=O)CC2)cc1` [Compound I-71, 3-((1-(4-benzoylbenzoyl)-4-hydroxypiperidin-4-yl)methyl)pyrrolo[2,1-f][1,2,4]triazin-4(3H)-one], `O=C(c1ccc(Oc2ccccc2)cc1)N1CCC(O)(Cn2cnn3cccc3c2=O)CC1` [Compound I-80, 3-((4-hydroxy-1-(4-phenoxybenzoyl)piperidin-4-yl)methyl)pyrrolo[2,1-f][1,2,4]triazin-4(3H)-one] is higher in IC50: 1 to 10 µM for the first, over 10 µM for the second. The first is the more potent here.

`O=C(Nc1cccc(F)c1)Nc1cc2c(=O)n(CC3(O)CCN(C(=O)C4CC4)CC3)cnn2c1` [Compound I-96, 1-(3-((1-(cyclopropanecarbonyl)-4-hydroxypiperidin-4-yl)methyl)-4-oxo-3,4-dihydropyrrolo[2,1-f][1,2,4]triazin-6-yl)-3-(3-fluorophenyl)urea] and `Cc1ccc(NC(=O)Nc2cc3c(=O)n(CC4(O)CCN(C(=O)C5CC5)CC4)cnn3c2)c(C)c1` [Compound I-99, 1-(3-((1-(cyclopropanecarbonyl)-4-hydroxypiperidin-4-yl)methyl)-4-oxo-3,4-dihydropyrrolo[2,1-f][1,2,4]triazin-6-yl)-3-(2,4-dimethylphenyl)urea] cannot be ordered by IC50: over 10 µM for the first, over 10 µM for the second.

First: Cc1cc(C(F)(F)F)nn1Cc1ccc(C(=O)N2CCC(O)(Cn3cnn4cccc4c3=O)CC2)cc1 [Compound I-67, 3-((4-hydroxy-1-(4-((5-methyl-3-(trifluoromethyl)-1H-pyrazol-1-yl)methyl)benzoyl)piperidin-4-yl)methyl)pyrrolo[2,1-f][1,2,4]triazin-4(3H)-one]
Second: O=C(c1cccc(-c2ccc3nccn3c2)c1)N1CCC(O)(Cn2cnn3cccc3c2=O)CC1 [Compound I-22, 3-((4-hydroxy-1-(3-(imidazo[1,2-a]pyridin-6-yl)benzoyl)piperidin-4-yl)methyl)pyrrolo[2,1-f][1,2,4]triazin-4(3H)-one]
The IC50 of the first is lower: 1 to 10 µM for the first, over 10 µM for the second. The first is the more potent here.

`N#Cc1ccc(N2CCN(C(=O)N3CCC(O)(Cn4cnn5cccc5c4=O)CC3)CC2)cc1` [Compound I-73, 4-(4-(4-hydroxy-4-((4-oxopyrrolo[2,1-f][1,2,4]triazin-3(4H)-yl)methyl)piperidine-1-carbonyl)piperazin-1-yl)benzonitrile] and `CS(=O)(=O)c1ccc(N2CCN(C(=O)N3CCC(O)(Cn4cnn5cccc5c4=O)CC3)CC2)cc1` [Compound I-74, 3-((4-hydroxy-1-(4-(4-(methylsulfonyl)phenyl)piperazine-1-carbonyl)piperidin-4-yl)methyl)pyrrolo[2,1-f][1,2,4]triazin-4(3H)-one] cannot be ordered by IC50: over 10 µM for the first, over 10 µM for the second.

`Cc1ccc(C(=O)Nc2cc3c(=O)n(CC4(O)CCN(C(=O)C5CC5)CC4)cnn3c2)cc1C` [Compound I-107, N-(3-((1-(cyclopropanecarbonyl)-4-hydroxypiperidin-4-yl)methyl)-4-oxo-3,4-dihydropyrrolo[2,1-f][1,2,4]triazin-6-yl)-3,4-dimethylbenzamide] and `O=C(Nc1cc2c(=O)n(CC3(O)CCN(C(=O)C4CC4)CC3)cnn2c1)c1csc(-c2ccccc2)n1` [Compound I-112, N-(3-((1-(cyclopropanecarbonyl)-4-hydroxypiperidin-4-yl)methyl)-4-oxo-3,4-dihydropyrrolo[2,1-f][1,2,4]triazin-6-yl)-2-phenylthiazole-4-carboxamide] fall in the same range of IC50: 1 to 10 µM for the first, 1 to 10 µM for the second.

`N#Cc1ccc(-c2cccc(C(=O)N3CCC(O)(Cn4cnn5cccc5c4=O)CC3)c2)cc1` [Compound I-19, 3′-(4-hydroxy-4-((4-oxopyrrolo[2,1-f][1,2,4]triazin-3(4H)-yl)methyl)piperidine-1-carbonyl)-[1,1′-biphenyl]-4-carbonitrile] and `O=C(NC1CCCC1)c1cccc(-c2cccc(C(=O)N3CCC(O)(Cn4cnn5cccc5c4=O)CC3)c2)c1` [Compound I-26, N-cyclopentyl-3′-(4-hydroxy-4-((4-oxopyrrolo[2,1-f][1,2,4]triazin-3(4H)-yl)methyl)piperidine-1-carbonyl)-[1,1′-biphenyl]-3-carboxamide] cannot be ordered by IC50: over 10 µM for the first, over 10 µM for the second.

First: C=C(C)C(=O)Nc1ccccc1-c1ccc(C(=O)N2CCC(O)(Cn3cnn4cccc4c3=O)CC2)cc1 [Compound I-114, N-(4′-(4-hydroxy-4-((4-oxopyrrolo[2,1-f][1,2,4]triazin-3(4H)-yl)methyl)piperidine-1-carbonyl)-[1,1′-biphenyl]-2-yl)methacrylamide]
Second: O=C(COc1ccc(OC(F)(F)F)cc1)Nc1cc2c(=O)n(CC3(O)CCN(C(=O)C4CC4)CC3)cnn2c1 [Compound I-104, N-(3-((1-(cyclopropanecarbonyl)-4-hydroxypiperidin-4-yl)methyl)-4-oxo-3,4-dihydropyrrolo[2,1-f][1,2,4]triazin-6-yl)-2-(4-(trifluoromethoxy)phenoxy)acetamide]
The IC50 of the first is lower: 1 to 10 µM for the first, over 10 µM for the second. The first is the more potent here.
